The values that follow come from ChEMBL document CHEMBL3259744, “Synthesis and biological evaluation of cinnamido linked benzophenone hybrids as tubulin polymerization inhibitors and apoptosis inducing agents” (Bioorg Med Chem Lett, 2014).

pIC50: −log10 of the molar value. Activity calls are given as the source filed them. No cut-off for these calls is given here.

Assay [1] relates to HeLa. The assay can be described thus: Induction of apoptosis in human HeLa cells assessed as presence of apoptotic bodies at 1 uM after 48 hrs by Hoechst 33342 staining-based fluorescence microscopic analysis. The class given is functional, cell-based.
The target in assay [2] is T1, Tubulin (Homo sapiens) (UniProt P68371+Q9H4B7+P0DPH7+P68366+Q13509+Q71U36+P04350+Q3ZCM7+P07437+P68363+Q9BQE3+Q6PEY2+Q13885+Q9BVA1+Q9BUF5). Put plainly: Inhibition of tubulin polymerization in human HeLa cells assessed as disruption of microtubule organization at 1 uM after 48 hrs by immunohistochemical analysis. Type of assay: cell-based.
Assay [3] deals with COLO 205. The assay can be described thus: Cytotoxicity against human COLO205 cells after 72 hrs by MTT assay. The class given is functional, cell-based. The settings on record: COLO 205, 72 h.
In assay [4] the test system is HeLa. The assay can be described thus: Cell cycle arrest in human HeLa cells assessed as accumulation at G2/M phase at 0.5 uM after 24 hrs by propidium iodide staining-based FACS analysis (reference value: 21.10%). Type of assay: functional.
The test system of assay [5] is HeLa. Put plainly: Induction of apoptosis in human HeLa cells assessed as […] condensation at 1 uM after 48 hrs by Hoechst 33342 staining-based fluorescence microscopic analysis. Type of assay: functional, cell-based.
The subject of assay [6] is DU-145. The assay can be described thus: Cytotoxicity against human DU145 cells after 72 hrs by MTT assay. Type of assay: functional, cell-based. The settings on record: DU-145, 72 h. On the technique in general: Tetrazolium assays rely on reduction of a dye to a coloured formazan, in cell work by metabolically active cells.
The target of assay [7] is Tubulin. Put plainly: Inhibition of tubulin (unknown origin) polymerization measured for 1 hr by fluorescence assay in presence of GTP. Type of assay: protein-complex assay, Homo sapiens.
A short description of assay [8]: Cytotoxicity against human ME180 cells after 72 hrs by MTT assay. Type of assay: functional, cell-based. To be noted: ME-180, 72 h.
The test system of assay [9] is HeLa. The assay can be described thus: Cell cycle arrest in human HeLa cells assessed as accumulation at S phase at 0.5 uM after 24 hrs by propidium iodide staining-based FACS analysis (reference value: 4.62%). Type of assay: functional.
In assay [10] the test system is B16. Put plainly: Cytotoxicity against mouse B16 cells after 72 hrs by MTT assay. To be noted: B16, 72 h. The class given is functional, cell-based.
In assay [11] the test system is HeLa. Put plainly: Cell cycle arrest in human HeLa cells assessed as accumulation at G1 phase at 0.5 uM after 24 hrs by propidium iodide staining-based FACS analysis (reference value: 71.21%). Type of assay: functional.
The subject of assay [12] is HeLa. The assay can be described thus: Induction of apoptosis in human HeLa cells assessed as nuclear fragmentation at 1 uM after 48 hrs by Hoechst 33342 staining-based fluorescence microscopic analysis. The class given is functional, cell-based.
The test system of assay [13] is HeLa. The assay can be described thus: Cytotoxicity against human HeLa cells after 72 hrs by MTT assay. Type of assay: functional, cell-based.
The test system of assay [14] is PC-3. The assay can be described thus: Cytotoxicity against human PC3 cells after 72 hrs by MTT assay. Type of assay: functional, cell-based. The settings on record: PC-3, 72 h.
The subject of assay [15] is HT-29. Put plainly: Cytotoxicity against human HT-29 cells after 72 hrs by MTT assay. The class given is functional, cell-based. To be noted: HT-29, 72 h.
The target in assay [16] is T1, Tubulin (Homo sapiens). The assay can be described thus: Inhibition of tubulin (unknown origin) polymerization at 5 uM measured for 1 hr by fluorescence assay in presence of GTP relative to control. The class given is protein-complex assay.
Assay [17] deals with HeLa. Put plainly: Induction of apoptosis in human HeLa cells assessed as caspase-3 activation at 2 uM after 48 hrs by Ac-DEVD fluorescence assay relative to control. The class given is functional.
Assay [18] concerns HeLa. Put plainly: Cell cycle arrest in human HeLa cells assessed as accumulation at sub-G1 phase at 0.5 uM after 24 hrs by propidium iodide staining-based FACS analysis (reference value: 3.07%). Type of assay: functional. Background: A flow cytometer gives signals particle by particle.
Assay [19] deals with HeLa. The assay can be described thus: Induction of apoptosis in human HeLa cells assessed as DNA fragmentation at 1 to 2 uM after 48 hrs by agarose gel electrophoresis. The class given is functional, cell-based.

As to `COc1ccc(C(=O)c2cc(OC)c(OC)c(OC)c2)cc1NC(=O)/C=C/c1ccc(F)cc1`, the result in assay [1], in assay [5], in assay [12] and in assay [19] was Active. Besides, in [2], the inhibition (as a rule, the drop in the measured response relative to a control, in per cent) is “Active”. Moreover, the pIC50 (usually the negative decadic logarithm of the IC50, by convention in mol/L) in assay [3] was 5.47; in [6], 5.41; in [7], 6.22; in [8], 6.52; in assay [10], 6.40; in assay [13] it was 7.22. For the same compound, the pIC50 in assay [14] was 5.49; in assay [15], 5.74. The Activity was 36.62% in assay [4], 7.4% in assay [9], 53.02% in assay [11] and 2.96% in assay [18]. Also, the inhibition in assay [16] was 60.5%. Also, in [17], the “fold change (FC)” value was determined as 5.
Take `COc1ccc(C(=O)c2cc(OC)c(OC)c(OC)c2)cc1NC(=O)/C=C/c1ccc(C(F)(F)F)cc1`: the outcome in assay [1], in assay [5], in [12] and in assay [19] was Active. Further, the inhibition entry in assay [2] was “Active”. Moreover, the pIC50 in [3] was 5.59; in assay [6], 5.37; in [7], 6.15; in [8], 6.10; in [10], 7.00; in [13] it was 7.05. The pIC50 in assay [14] is 5.46; in assay [15], 5.80. Besides, the Activity in assay [4] is listed as 38.82%; in assay [9], 5.92%; in assay [11], 49.59%; in assay [18], 5.66%. The inhibition in assay [16] worked out at 59.4%. Also, the “fold change (FC)” value in [17] came out at 5.
